According to publication PMC11509912, “Identification of Novel PPARγ Partial Agonists Based on Virtual Screening Strategy: In Silico and In Vitro Experimental Validation” (Molecules, 2024):

Tests used:
PPARγ [1] = molecular target: T1, PPARγ (Homo sapiens, UniProt P37231); experiment: LanthaScreen TR-FRET competitive binding assay (IC50 […]); supported by cell-based PPRE-luciferase assay (weak/partial agonism)
T1 construct: gene PPARG; PPARγ LBD
T1 sequence (P37231 231-505 limits assumed): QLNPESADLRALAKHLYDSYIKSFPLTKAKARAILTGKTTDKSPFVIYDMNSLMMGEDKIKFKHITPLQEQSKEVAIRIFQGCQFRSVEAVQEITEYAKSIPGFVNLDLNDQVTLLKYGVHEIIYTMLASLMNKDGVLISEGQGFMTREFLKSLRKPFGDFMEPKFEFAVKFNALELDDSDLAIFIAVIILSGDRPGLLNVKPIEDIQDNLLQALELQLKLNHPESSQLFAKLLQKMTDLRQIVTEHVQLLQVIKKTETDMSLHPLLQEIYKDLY

PPARγ [2] = molecular target: T2, PPARγ (Homo sapiens, UniProt P37231); experiment: cos-7 cells transfected with hPPARγ, PPRE×[…] TK-luciferase transactivation assay at […]; format: cell-based
T2 construct: gene PPARG; hPPARγ plasmid
T2 sequence (P37231 1-505): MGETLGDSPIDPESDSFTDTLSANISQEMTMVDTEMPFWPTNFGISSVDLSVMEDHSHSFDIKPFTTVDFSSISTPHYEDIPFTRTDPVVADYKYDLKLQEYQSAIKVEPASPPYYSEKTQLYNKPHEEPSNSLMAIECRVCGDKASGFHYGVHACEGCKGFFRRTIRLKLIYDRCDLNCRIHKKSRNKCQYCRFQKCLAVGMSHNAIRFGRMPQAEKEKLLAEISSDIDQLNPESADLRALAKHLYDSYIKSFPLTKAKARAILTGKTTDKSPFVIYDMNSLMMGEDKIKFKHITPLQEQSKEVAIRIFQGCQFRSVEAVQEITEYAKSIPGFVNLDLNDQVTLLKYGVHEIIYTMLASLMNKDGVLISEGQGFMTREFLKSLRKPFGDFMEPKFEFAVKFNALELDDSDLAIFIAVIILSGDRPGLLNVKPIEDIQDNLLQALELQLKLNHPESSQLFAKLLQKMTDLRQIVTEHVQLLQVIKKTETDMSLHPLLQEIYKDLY

Compound | Ki (PPARγ [1]) [µM] | cos-7 cells transfected with hPPARγ, PPRE×3 TK-luciferase transactivation assay (PPARγ [2])
COc1cc([C@@H]2c3cc4c(cc3C(=O)[C@H]3COC(=O)[C@H]23)OCO4)cc(OC)c1OC [podophyllotoxone] | 9.86 | –
Clc1ccc(C(Cn2ccnc2)OCc2ccc(Sc3ccccc3)cc2)c(Cl)c1 (centres unmarked) [FN, fenticonazole] | – | podophyllotoxone exhibited weak PPARγ agonistic activity, similar to fenticonazole (FN), a PPARγ partial agonist
